Source: patent US10973932B2, “Preclinical model of neonatal necrotizing enterocolitis” (University of South Florida, priority 2017, dated 2021)

B1: recombinant haptoglobin: recombinant haptoglobin, a natural chelator of free hemoglobin (protein, UniProt P00738 19-406, looked up)
Haptoglobin: VDSGNDVTDIADDGCPKPPEIAHGYVEHSVRYQCKNYYKLRTEGDGVYTLNDKKQWINKAVGDKLPECEADDGCPKPPEIAHGYVEHSVRYQCKNYYKLRTEGDGVYTLNNEKQWINKAVGDKLPECEAVCGKPKNPANPVQRILGGHLDAKGSFPWQAKMVSHHNLTTGATLINEQWLLTTAKNLFLNHSENATAKDIAPTLTLYVGKKQLVEIEKVVLHPNYSQVDIGLIKLKQKVSVNERVMPICLPSKDYAEVGRVGYVSGWGRNANFKFTDHLKYVMLPVADQDQCIRHYEGSTVPEKKTPKSPVGVQPILNEHTFCAGMSKYQEDTCYGDAGSAFAVHDLEEDTWYATGILSFDKSCAVAEYGVYVKVTSIQDWVQKTIAEN

How the values were obtained:
[1] = system: monocytes and macrophages; assay: Depletion of intestinal monocytes/macrophages (flow cytometry); format: in vivo, mouse; settings: CSF1R-DTR/mCherry×Lyz2-cre pups; 5 ng/g weight; FIG. 7E
Procedure: Flow cytometry: Macrophages were defined by flow cytometry (BD LSRII, Franklin Lakes, N.J.). Intestinal tissue was washed with Hanks' balanced-salt solution (HBSS) containing 1 mM DTT (Sigma) to remove mucus, and then treated first with HBSS containing 1 mM EDTA (Sigma)×20 min at 37° C., and then with HBSS containing 1 mM collagenase type IV (Sigma)×2 hrs at 37° C. Cell suspension was stained using established protocols with the L-D viability dye (ThermoFisher), lineage cocktail (BioLegend, San Diego, Calif.), and antibodies against CD11b, Ly6C, F4/80, Ly6G, and Ly6B (BioLegend).
Murine intestinal macrophages: Murine intestinal macrophages were isolated by immunomagnetic separation, where these cells were first stained with phycoerythrin (PE)-conjugated anti-CD11b, anti-F4/80, and anti-Ly6C antibodies and then separated using anti-PE-conjugated ferromagnetic beads (Miltenyi Biotec, San Diego, Calif.). In some experiments, monocytes and macrophages were depleted by administering clodronate liposomes (Clodrosome, Brentwood, Tenn.). A 50 mg/kg intraperitoneal dose was used and an identical dose by enema on postnatal day 8, which depleted >80% monocytes and macrophages in 72 hrs (pre-determined optimum).
These findings were confirmed using a second, more specific approach for macrophage depletion. […]

anemic-transfused mice = assay: RBC transfusion-associated NEC-like injury in anemic-transfused mouse pups; format: in vivo
Procedure: Experimental design: Animal studies were approved by the Institutional Animal Care and Use Committee. C57BL/6 mice pups were studied in 4 groups: (a) naïve control; (b) transfusion control; (c) anemic control; and (d) anemic-transfused mice. Naïve controls were maintained without intervention. Transfusion controls received an intravenous RBC transfusion (20 mL/kg into the retro-orbital venous plexus, injected in 2 aliquots on each side) on postnatal day 11 (P11). RBCs for transfusion were collected in a sterile fashion from adult FVB/NJ donors after sacrifice into citrate-phosphate-dextrose-adenine-1 (CPDA-1; Sigma, St. Louis, Mo.; 6 parts blood: 1 part CPDA-1). […] Hematocrits and RBC indices were measured at each phlebotomy and then everyday on P11-13; 5 μL blood was diluted 1:20 in Cellpak reagent (Sysmex, Kobe, Japan) and analyzed in the Sysmex XT-2000iV automated veterinary hematology analyzer. […] To measure gut barrier function, FITC-dextran was administered by gavage (10 kDa, 400 mg/kg) 4 hrs before sacrifice and measured the FITC fluorescence signal in plasma samples obtained just prior to sacrifice. To measure regional blood flow, […] fluorescence-labeled microspheres were administered intravenously (15 μm, ThermoFisher, Waltham, Mass.) 1 hr before sacrifice and the fluorescence signal was measured in tissue lysates. […]

NF-κB = NF-κB reporter RAW264.7 macrophages stimulated with 7-day-stored RBCs; format: cell-based, murine; settings: haptoglobin 10 μg/mL added with 7-day RBCs; FIG. 5H

Row | Molecule | inflammatory F4/80mid CD115+Ly6Chi macrophages (not resident macrophages) [1] | transfusion-associated NEC-like injury (onset, severity of bowel injury) (anemic-transfused mice; CSF1R-DTR/mCherry×Lyz2-cre anemic-transfused pups, 5 ng/g weight, FIGS. 7E-7G) | inflammatory effect of 7-day-stored RBC units on macrophages (relative NF-κB activity) (NF-κB) | transfusion-associated NEC-like injury (onset, severity of bowel injury) (anemic-transfused mice; intravenous 10 μg/g body weight 1 hr before transfusion, FIGS. 5I-5J)
1 | diphtheria toxin | selectively depleted | protective | – | –
2 | B1 | – | – | reversed | protective
